The supplement of paper PMC10307832

These cell lines were tested with COCC[n+]1c2c(n(Cc3cnccn3)c1C)C(=O)c1ccccc1C2=O [YM155] + O=C(c1cc(Cc2n[nH]c(=O)c3ccccc23)ccc1F)N1CCN(C(=O)C2CC2)CC1 [Olaparib] (partner 8 µM) (assay: relative viability (nuclei count vs DMSO), 5 days (fraction); higher = more cells survive). Settings: first compound 0.02 µM.
Outline: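 The day after seeding in 1536-well plates, lung cancer cell lines were treated by pin tool with a single drug, or with a fixed anchor-drug dose together with five library-drug doses (not always all listed) in √10 steps. After 5 days, a combined fix-and-stain solution (final 0.05% Triton X-100, 1% formaldehyde, 1 ug/ml Hoechst) was added. Nuclei counted on 4× images gave relative viability as treated counts over vehicle counts, reported as the median of duplicate plates.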

Row | Cell Line | relative viability
1 | NCI-H1651 | 0.206
2 | UMC-11 | 0.595
3 | NCI-H1355 | 0.8
4 | H3255 | 0.578
5 | NCI-H1792 | 0.502
6 | NCI-H647 | 0.516
7 | Calu-6 | 0.294
8 | LCLC-97TM1 | 0.311
9 | NCI-H1703 | 0.346
10 | LXF-289 | 1.04
11 | LU99A | 0.255
12 | NCI-H2023 | 0.379
13 | NCI-H2228 | 0.809
14 | NCI-H1437 | 0.599
15 | NCI-H1395 | 0.46
16 | NCI-H2009 | 0.582
17 | HCC-366 | 0.375
18 | EBC-1 | 0.799
19 | NCI-H1915 | 0.278
20 | NCI-H2347 | 0.618
21 | LCLC-103H | 0.77
22 | ABC-1 | 0.28
23 | NCI-H1734 | 0.656

Row | Cell Line | relative viability
24 | HCC-78 | 0.807
25 | COR-L 105 | 0.72
26 | HCC-15 | 0.696
27 | HARA | 0.76
28 | NCI-H1975 | 0.767
29 | NCI-H1944 | 0.404
30 | NCI-H2126 | 0.935
31 | EMC-BAC-2 | 0.392
32 | SK-LU-1 | 0.516
33 | IA-LM | 0.879
34 | NCI-H2170 | 0.668
35 | SW 900 | 0.848
36 | NCI-H661 | 0.739
37 | NCI-H358 | 0.529
38 | CAL-12T | 0.625
39 | LK-2 | 0.797
40 | HOP-62 | 0.419
41 | PC-14 | 0.281
42 | NCI-H1993 | 0.79
43 | NCI-H2405 | 0.637
44 | A549 | 0.376
45 | NCI-H3122 | 0.679
46 | A-427 | 0.714

Row | Cell Line | relative viability
47 | NCI-H2342 | 0.473
48 | LOU-NH91 | 0.921
49 | NCI-H596 | 0.697
50 | NCI-H1666 | 0.769
51 | NCI-H23 | 0.294
52 | NCI-H838 | 0.761
53 | NCI-H322M | 0.706
54 | NCI-H1793 | 0.91
55 | NCI-H441 | 0.518
56 | NCI-H727 | 0.66
57 | SW 1573 | 0.21
58 | 201T | 0.826
59 | HCC-44 | 0.992
60 | NCI-H1755 | 0.855
61 | NCI-H1650 | 0.491
62 | ChaGo-K-1 | 0.43
63 | COR-L23 | 0.187
64 | NCI-H2085 | 0.805
65 | NCI-H460 | 0.417
66 | BEN | 1.11
67 | PC-3 [JPC-3] | 1.1
68 | LC-2-ad | 0.695
69 | NCI-H522 | 0.594

Same assay, conditions: first compound 0.06325 µM

Row | Cell Line | relative viability
70 | EKVX | 0.401
71 | EPLC-272H | 0.811
72 | NCI-H520 | 0.294
73 | NCI-H650 | 0.377
74 | RERF-LC-KJ | 0.858
75 | HCC-827 | 0.702
76 | NCI-H2087 | 0.49
77 | SK-MES-1 | 0.189
78 | NCI-H1299 | 0.875
79 | NCI-H1651 | 0.173
80 | UMC-11 | 0.386
81 | NCI-H1355 | 0.725
82 | H3255 | 0.508
83 | NCI-H1792 | 0.454
84 | NCI-H647 | 0.295
85 | Calu-6 | 0.129
86 | LCLC-97TM1 | 0.376
87 | NCI-H1703 | 0.387
88 | LXF-289 | 0.947
89 | LU99A | 0.262
90 | NCI-H2023 | 0.325
91 | NCI-H2228 | 0.581
92 | NCI-H1437 | 0.387
93 | NCI-H1395 | 0.456
94 | NCI-H2009 | 0.337
95 | HCC-366 | 0.275

Row | Cell Line | relative viability
96 | EBC-1 | 0.622
97 | NCI-H1915 | 0.254
98 | NCI-H2347 | 0.498
99 | LCLC-103H | 0.801
100 | ABC-1 | 0.261
101 | NCI-H1734 | 0.63
102 | HCC-78 | 1
103 | COR-L 105 | 0.538
104 | HCC-15 | 0.666
105 | HARA | 0.935
106 | NCI-H1975 | 0.189
107 | NCI-H1944 | 0.406
108 | NCI-H2126 | 0.946
109 | EMC-BAC-2 | 0.301
110 | SK-LU-1 | 0.327
111 | IA-LM | 0.642
112 | NCI-H2170 | 0.62
113 | SW 900 | 0.808
114 | NCI-H661 | 0.41
115 | NCI-H358 | 0.156
116 | CAL-12T | 0.331
117 | LK-2 | 0.75
118 | HOP-62 | 0.29
119 | PC-14 | 0.155
120 | NCI-H1993 | 0.465
121 | NCI-H2405 | 0.397

Row | Cell Line | relative viability
122 | A549 | 0.324
123 | NCI-H3122 | 0.627
124 | A-427 | 0.294
125 | NCI-H2342 | 0.445
126 | LOU-NH91 | 0.745
127 | NCI-H596 | 0.622
128 | NCI-H1666 | 0.679
129 | NCI-H23 | 0.235
130 | NCI-H838 | 0.416
131 | NCI-H322M | 0.734
132 | NCI-H1793 | 0.575
133 | NCI-H441 | 0.299
134 | NCI-H727 | 0.729
135 | SW 1573 | 0.0835
136 | 201T | 0.874
137 | HCC-44 | 1.04
138 | NCI-H1755 | 0.913
139 | NCI-H1650 | 0.194
140 | ChaGo-K-1 | 0.385
141 | COR-L23 | 0.147
142 | NCI-H2085 | 0.516
143 | NCI-H460 | 0.384
144 | BEN | 1.08
145 | PC-3 [JPC-3] | 0.796
146 | LC-2-ad | 0.617
147 | NCI-H522 | 0.612
